# Source: a melting point compilation (Tetko et al.; mined from patent text by program, amines drawn as free bases though some values may be those of a salt)
row,Compound,melting point [°C]
1,Cc1cnnc2c1C(=O)CC(c1cc(Cl)sc1Cl)C2 (stereo unspecified),137 to 138
2,O=C(O)CCN(O)CCC(=O)O,148 to 149
3,Cc1c(CN2CCOCC2)sc2c(Br)c3ccccc3c(-c3cc(Br)c(O)c(Br)c3)c12,237 to 240
4,CC(=O)N1CCN(c2ccc(-c3cnc4[nH]cc(C(=O)N[C@@H](C(=O)N5CC(C#N)C5)C5CC5)c4n3)cc2)CC1,185 to 188
5,CN(C)C(=O)N(C)C(=O)N1CCN(c2ccc(F)cc2)CC1,83 to 84
6,CC(=O)Oc1c(C=C(C#N)C#N)n(C(C)=O)c2ccccc12,250 to 252
7,CS(=O)c1ccc(CCCCl)cc1 (stereo unspecified),46
8,CCc1ccc(NN)c(Cl)c1,55 to 57
9,CC1(C)OC(=O)Nc2ccc(-c3ccc(F)cc3)cc21,232 to 233
10,NCCCP(=O)(O)C(F)F,261
11,O=C(O)CC1C=CC=CC1=NOC(=O)C(Cl)Cl (stereo unspecified),115
12,O=[N+]([O-])c1ccc(C2SCCS2)cc1,80 to 82
13,Fc1ccc(Cl)c(-c2c(Cl)nc3ncnn3c2Cl)c1,137
14,CCOC(=O)c1cn(C(C)(C)C)c2nc(N3CC4CCC(C3)N4C(=O)C(F)(F)F)c(F)cc2c1=O,205
15,CCCC(=O)CN1CCC(CCN2CCN(c3cccc(C)c3C)CC2)CC1,47
16,COc1cccc2c1C(N)=NS2(=O)=O,270
17,COc1c(-c2cc3c(s2)CCC(O)C3)ccc2c(=O)c(C(=O)O)cn(C3CC3)c12 (stereo unspecified),232 to 233
18,CN(C)[C@@H]1CN2C(=O)N(c3cc(Cl)cc(Cl)c3)C(=O)[C@@]2(Cc2ccc(Br)cc2)C1,54
19,CCOC(=O)CCCn1cc(C(=O)c2ccc(OCc3ccc(C)cc3)c(O)c2)c2ccccc21,125 to 127
20,COC12CC(C)(c3nc(-c4cncc(Br)c4)no3)CN(C)C1Cc1c(Br)n(C)c3cccc2c13 (stereo unspecified),167 to 172
21,O=C(NC[C@@H]1CCNC[C@H]1O)c1cc(Cl)cc2c1OCCCO2,114

row,Compound,melting point [°C]
1,CC1(C)C(=O)ON(Cc2ccccc2Br)C1=O,44.5 to 45.5
2,C#CCn1nc(-c2ccc(Cl)cc2)n(CC)c1=O,115 to 119
3,COc1cc(-n2c(OC)nc(C(F)(F)C(F)(F)F)cc2=O)c(F)cc1Cl,123 to 125
4,Cc1nnc2n1-c1ccc(C#CCN3Cc4ccccc4C3=O)cc1C(c1ccccc1F)=NC2,165 to 168
5,CCCC[Si](C)(C)CCCSCCCNC(=O)n1cc(F)c(=O)[nH]c1=O,71 to 72
6,O=C(NN1CCN(CCc2c[nH]c3ccccc23)CC1)c1ccc(O)cc1,190 to 192
7,COC(=O)[C@H]1C[C@H](C(=O)O)Nc2cccc(Cl)c21 (relative stereo),159 to 161
8,C=CCCC(O)=C(C#N)C(=O)Nc1ccc(Cl)cc1,138
9,CCCc1c(OCCCCCCc2cccc(OCCCCCCC(=O)O)c2CCC(=O)O)ccc2c1OCCC2=O,91 to 93
10,O=C(O)c1cccc(CO[N+](=O)[O-])c1,123 to 125
11,COc1cc2nc(N3CCN(C(=O)C4CCCC4)CC3)nc(N)c2cc1OC,256 to 259
12,CCc1cc2cc(O)c(Cl)c(Cl)c2s1,69 to 70
13,CN1CCN=C(c2ccccc2)c2cc([N+](=O)[O-])ccc21,186 to 187
14,O=C(O)CSC1CCCc2cc3c(cc21)OCO3 (stereo unspecified),138 to 139
15,N#Cc1cn(-c2ccc([N+](=O)[O-])cc2)nc1[N+](=O)[O-],172 to 175
16,C=CC(=O)NC(=O)NCCS(=O)C=C (stereo unspecified),109 to 110
17,CCC(OC(C)=O)c1ccc(Cl)c2nc3n(c12)CCCN3c1cnc(N(C)C)cc1C (stereo unspecified),159 to 160
18,CC(C)Sc1sc(-c2nnn(C)n2)c2c1C(=O)CC(C)(C)C2,180 to 183
19,CCOC(=O)c1c2n(c3c(F)c(N4CCC(N(C)C)C4)c(F)cc3c1=O)C(C)S2 (stereo unspecified),165 to 168
20,C[C@H](CSC(=O)C(C)(C)C)C(=O)N(CC(=O)OC(C)(C)C)C1CCCC1,58
21,CC1CC(=O)NN=C1c1ccc2c(c1)N(CC(=O)N1CCN(CCO)CC1)CS2=O (stereo unspecified),231 to 233

# Further lines, results first:
row,melting point [°C],Compound
1,186 to 187,COc1cn(-c2cc(-n3cccn3)ccc2F)nc(-c2ccnn2-c2ccccc2)c1=O
2,57 to 60,CC(C)C/C(=C\F)CN1C(=O)c2ccccc2C1=O
3,147 to 151,Cc1ccc(C(=O)Nc2ccc(CN3CCOCC3)c(C(F)(F)F)c2)cc1Br
4,58 to 59,ON=Cc1cccc(OCc2ccccc2)c1
5,169 to 170,O=[N+]([O-])c1ccc(-n2nnnc2-c2ccccc2Br)cc1
6,110 to 111,COC(=O)CC1c2ccccc2C(=O)N1c1ccc(Cl)cn1 (stereo unspecified)
7,148 to 150,CCCOc1ccc(C)cc1C(=N)OCC
8,101 to 103,COC(=O)C1(CCCN2CCN(c3ccccc3)CC2)Sc2ccccc2CCC1=O (stereo unspecified)
9,94 to 95,COc1cc(CCCC2OC(=O)NC2=O)cc(OC)c1OCc1coc(/C=C/c2ccccc2)n1 (stereo unspecified)
10,156 to 158,c1ccc(-c2nc3n(n2)Cc2ccccc2-3)cc1
11,186 to 188,CNc1nc(-c2cccc(-c3cccnc3)c2)c2cc(OC)c(OC)cc2n1
12,146 to 147,Cc1c(-c2ccccc2)sc2c(Cl)c(Cl)c(O)cc12
13,90 to 92,CC(C)(C)c1cc(C(=O)ON(Cc2ccccc2)Cc2ccccc2)cc(C(C)(C)C)c1O
14,174 to 175,CCc1nc(N)nc(N)c1N1CCN(Cc2ccccc2)CC1
15,190 to 193,CSc1nc(-c2cccnc2)n(-c2ccc(F)cc2)c(=O)c1C#N
16,245 to 247,COc1ccc(C(=O)C2=C(O)C(=O)N(c3nnc(C)s3)C2c2ccc(OC(F)(F)F)cc2)cc1 (stereo unspecified)
17,180 to 181,CC(C)(C)OC(=O)Nc1cc(OCc2ccccc2)c2ncccc2c1
18,153 to 155,O=C(NC1(O)CC1)c1ccccc1
19,43 to 46,CCOC(=O)c1ccc(N(Cc2ccc(Cl)cc2)C(=O)OCC)cc1
20,137,CNc1ccc2c(c1)Sc1cc(NC)ccc1N2C(C)=O

row,melting point [°C],Compound
1,119 to 120,CCN(Cc1cc(Cl)ccc1OCC1CC1)c1ccc(C(=O)O)nn1
2,114 to 116,O=C(O)Cc1csc2cc(-c3ccccc3)cn12
3,53.4,CC(C)(C)OC(=O)c1ccc(CBr)cc1
4,83 to 89,NCCOc1ccc(C(=C(c2ccc(F)cc2)C(F)(F)F)c2ccccc2)cc1
5,96 to 97,CCCCc1nc(Cl)c(C=O)n1Cc1ccc(-c2ccccc2C#N)cc1
6,99 to 101,CC(C)[C@@H]1OC(=O)N[C@@H]1C(=O)OCc1ccccc1
7,49 to 51,COC(=O)c1cccc(CN2CCN(c3nc(C)c(C(=O)NCc4ccccc4)s3)C2=O)c1
8,281 to 285,CC(c1oc2ccccc2c(=O)c1-c1cccc(F)c1)n1nc(-c2ccc3cc(O)ccc3c2)c2c(N)ncnc21 (stereo unspecified)
9,160 to 162,CC(=O)Nc1ccc(S(=O)c2ccc(Cl)cc2)cc1 (stereo unspecified)
10,204,CCCCCCCCCCCCOc1ccc(-c2cc3ccccc3[nH]2)cc1
11,136 to 137,CN(c1ccccc1)c1nc(Cl)c([N+](=O)[O-])s1
12,265,O=C(Nc1cccc(Oc2ccc3nc(NC(=O)C4CC4)cn3n2)c1)c1ccccc1
13,144 to 145,CC(C)c1ccc(CCC(O)CC2CCCCC2)cc1NC(=O)CC1c2ccccc2Oc2ccccc21 (stereo unspecified)
14,280 to 287,CC(=O)Nc1cc(Oc2ccc3c(C(=O)Nc4ccc(N5CCS(=O)(=O)CC5)c(C(F)(F)F)c4)cccc3c2)ncn1
15,51 to 52,COC(=O)CCc1cnoc1-c1ccc(Cl)cc1
16,176 to 180,CC(=O)Nc1ccc2c(c1)C(=O)CC2
17,85 to 87,CC(C)(C)OC(=O)CN1C(=O)C(N)C1CCc1ccco1 (stereo unspecified)
18,145 to 146,CC(C)(C)OC(=O)NC(C)(C)c1ccc(-c2ccno2)cc1
19,129,N#Cc1ccc(-c2ccc(OCCCCCC(=O)NO)cc2)cc1
20,> 300,Brc1cccc2nc3[nH]c4ccccc4nc-3c12

row,melting point [°C],Compound
1,236 to 239,COc1ccc2[nH]cc(/C=C/C(=O)c3ccncc3)c2c1
2,59,CCOc1ccc2c(c1)C(N)(c1ccccc1Cl)C(=O)N2Cc1ccc(C(=O)NC(C)(C)CN(CC)CC)cc1 (stereo unspecified)
3,146,CC(=O)OCC1OC(n2cnc3c(-n4cnc(-c5ccccc5)c4-c4ccccc4)nc(Cl)nc32)C(OC(C)=O)C1OC(C)=O (stereo unspecified)
4,161 to 163,CCOCc1nc2c(N)nc3cc(OCCN4CCOCC4)ccc3c2n1CC(C)(C)O
5,85,CCOCCn1cc(C2CCN(CCOc3ccc(C(=O)O)cc3)CC2)c2ccccc21
6,74 to 76,CC(NC(=O)OC(C)(C)C)C(=O)NO (stereo unspecified)
7,159 to 161,O=C1Nc2ccc(-c3cccc(Cl)c3)cc2C1=O
8,199 to 202,COc1cc(OC)nc(NC(=O)NS(=O)(=O)c2c3ccccc3nn2C)n1
9,134 to 136,COCCNc1nc(C)nc2c1nnn2-c1ccc(C(C)C)cc1Br
10,94 to 95,O=C(O)c1cc(C(F)(F)F)ccc1OCc1ccccc1
11,182 to 183,COc1cc(Nc2nccc(-c3ccc([N+](=O)[O-])s3)n2)cc(OC)c1OC
12,174 to 176,O=C(O)c1cnccc1Cc1cc(Cl)ccc1F
13,234 to 236,Cc1cccc(Sc2c(O)c3ccc(Cl)cc3[nH]c2=O)c1
14,85 to 86,CCOC(=O)/C=C/C=C/c1ccc(OCc2ccccc2)c(OC)c1
15,233 to 236,CCc1cc2c(ccc(=O)n2Cc2ccc(NC(=O)c3ccccc3S(=O)(=O)O)cc2)c(CC)n1
16,173 to 175,COC(=O)C1CCc2oc3cc(OC)ccc3c2C1=O (stereo unspecified)
17,55 to 60,CC(CN1C(=O)C2(COc3cc4c(cc32)CCO4)c2ccccc21)OCc1ccc(F)cc1 (stereo unspecified)
18,84 to 86,CCOC(=O)C(OCC)C(=O)Nc1cc(Cl)cc(Cl)c1 (stereo unspecified)
19,173,Cc1c(-c2ccc(NC(=O)NC(C)(C)C)cc2)nc2n1CCc1ccccc1C2OC1CCN(C)CC1 (stereo unspecified)
